# Data as given in patent US12053467B2, “Method of treating fibrosis” (NovMeta Pharma Co., Ltd., priority 2020, dated 2024).
# How the values were obtained:
# [1] = pKa of CHP hydrate material; format: physicochemical; conditions: characterising feature (b)
# Collagen 1 (Col1) = test: Col1 mRNA (real-time PCR) in bleomycin-induced pulmonary fibrosis mice; format: in vivo, ICR mice; conditions: lung, 5, 25, 50 and 100 mg/kg/day oral, daily for 4 weeks, vs BLM alone (set 1.0)
# Method: (§1) Seven-week-old male ICR mice from Koatech Co. Ltd (Gyeonggi-do, Korea). All animal experiments were approved by the Ethics Review Committee of the Advanced Bio Convergence Center, Republic of Korea. Mice were housed in specific pathogen-free conditions with a 12 hr light-dark cycle and had free access to water and food. Body weight and caloric intake were monitored throughout the experiments. The mice were housed in single cage and food intake was calculated of each animals in the cage. 5 or 25 or 50 or 100 mg/kg/day CHP monohydrate, 5 mg/kg/day CHP+10 mg/kg/day Zn, or PBS (vehicle control), was orally administered daily for 4 weeks. At the conclusion of the in vivo experiment, the mice were sacrificed and tissues were collected and weighed. Tissue samples were stored at −80° C. until analysis.
# (§2) Mice maintained under anesthesia with isoflurane were intravenously administered bleomycin 75 mg/kg in saline. […]
# (§3) Total RNA was prepared by an RNeasy Mini kit (QIAGEN) according to the manufacturer's instructions. RNA integrity was assessed by an automated microfluidics-based system (Bioanalyzer 2100, Agilent, Palo Alto, CA, USA). […] A melt curve was produced to confirm a single gene-specific peak and detect primer/dimer formation by heating the samples from 65 to 95° C. in 0.5° C. increments with a dwell time at each temperature of 10 sec while continuously monitoring fluorescence. […]
# Collagen 4 (Col4) = test: Col4 mRNA (real-time PCR) in bleomycin-induced pulmonary fibrosis mice; format: in vivo, ICR mice; conditions: lung, 5, 25, 50 and 100 mg/kg/day oral, daily for 4 weeks, vs BLM alone (set 1.0)
# Method: as §1, §2, §3
# [2] = test system: α-smooth muscle actin (aSMA); test: αSMA mRNA (real-time PCR) in bleomycin-induced pulmonary fibrosis mice; format: in vivo, ICR mice; conditions: lung, 5, 25, 50 and 100 mg/kg/day oral, daily for 4 weeks, vs BLM alone (set 1.0)
# Method: as §1, §2, §3
# Collagen 3 (Col3) = test: Col3 mRNA (real-time PCR) in bleomycin-induced pulmonary fibrosis mice; format: in vivo, ICR mice; conditions: lung, 5, 25, 50 and 100 mg/kg/day oral, daily for 4 weeks, vs BLM alone (set 1.0)
# Method: as §1, §2, §3
# [3] = test system: bleomycin (BLM)-induced pulmonary fibrosis; test: Bleomycin-induced pulmonary fibrosis mouse model, overall effect; format: in vivo, ICR mice; conditions: 5, 25, 50 and 100 mg/kg/day oral, 4 weeks; compared to BLM alone group; FIGS. 1-7
# Method: as §1, with “analysis. Mice maintained under anesthesia with isoflurane were intravenously administered bleomycin 75 mg/kg in saline. The first administration of CHP hydrate or CHP hydrate+Zn was performed 30 min after bleomycin administration.” for “analysis.”
# [4] = test system: lung hydroxyproline (collagen deposition); test: Hydroxyproline assay of lung in bleomycin-induced IPF mice; format: in vivo, ICR mice; conditions: 5, 25, 50 and 100 mg/kg/day oral, daily for 4 weeks, vs BLM alone
# Method: as §1
# (§4) Mice maintained under anesthesia with isoflurane were intravenously administered bleomycin 75 mg/kg in saline. The first administration of CHP hydrate or CHP hydrate+Zn was performed 30 min after bleomycin administration.
# Collagen deposition was determined by measuring the total hydroxyproline (HYP) content, which was measured by a HYP assay kit according to the provided manufacturer's protocol. […] After neutralization with hydrochloric acid, the hydrolyzation products were diluted with distilled water, and assessed at 550 nm and expressed as ug/10 mg.
# fibronectin [5] = test: Western blot of fibronectin in bleomycin-induced pulmonary fibrosis mice; format: in vivo, ICR mice; conditions: CHP 5 mg/kg oral, daily for 4 weeks; compared to BLM group
# Method: as §1, §4
# 20-30 μg of lysates were separated on BOLT™ 4-12% Bis-Tris Plus gels with MES running buffer and transferred to nitrocellulose membranes using TRANS-BLOT® TURBO™ Transfer System (Bio-Rad). […]
# [6] = test system: zinc absorption and uptake by muscle tissues and by intestinal segments; conditions: Life Sciences 70 (2001), 337-348; cited from earlier work
# [7] = test system: transforming growth factor-β (TGF-β); test: TGF-β mRNA (real-time PCR) in bleomycin-induced pulmonary fibrosis mice; format: in vivo, ICR mice; conditions: lung; 5, 25, 50 and 100 mg/kg/day oral, daily for 4 weeks; vs BLM alone (set 1.0)
# Method: as §1, §2, §3
# fibronectin [8] = test: Fibronectin mRNA (real-time PCR) in bleomycin-induced pulmonary fibrosis mice; format: in vivo, ICR mice; conditions: lung; 5, 25, 50 and 100 mg/kg/day oral, daily for 4 weeks; vs BLM alone (set 1.0)
# Method: as §1, §2, §3
Compound,pKa [1],relative Col1 mRNA expression level (Collagen 1 (Col1); hydrate),relative Col4 mRNA expression level (Collagen 4 (Col4); hydrate),relative αSMA mRNA expression level ([2]; hydrate),relative Col3 mRNA expression level (Collagen 3 (Col3); hydrate),inflammation and fibrosis biomarkers [3],lung hydroxyproline (HYP) content / accumulation of collagen in the lung ([4]; hydrate),fibronectin protein levels (Western blotting) (fibronectin [5]),zinc absorption and uptake [6],relative Col1 mRNA expression level (Collagen 1 (Col1)),relative Col4 mRNA expression level (Collagen 4 (Col4)),relative TGF-β mRNA expression level [7],relative αSMA mRNA expression level [2],relative Col3 mRNA expression level (Collagen 3 (Col3)),lung hydroxyproline (HYP) content / accumulation of collagen in the lung [4],relative fibronectin mRNA expression level (fibronectin [8])
"O=C1N[C@@H](Cc2cnc[nH]2)C(=O)N2CCC[C@@H]12 [CHP hydrate, cyclo(-His-Pro) hydrate]",~6.4,dramatically reduced,dramatically reduced,dramatically reduced,dramatically reduced,significantly decreased,significantly decreased,,,,,,,,,
"O=C1N[C@@H](Cc2cnc[nH]2)C(=O)N2CCC[C@@H]12 [CHP, Cyclo(-His-Pro)]",,,,,,,,dramatically reduced,enhanced,significantly reduces,significantly reduces,significantly reduces,significantly reduces,significantly reduces,significantly reduces,significantly reduces
